Laboratory results reported in US6221865A, “Inhibitors of protein isoprenyl transferases” (priority 1998, dated 2001).
Structures can show the parent of a compound that is named as a salt.

Biological target: T1, protein farnesyltransferase (Rattus norvegicus, UniProt Q02293+Q04631)
T1 construct: The enzyme is purified according to Reiss, Y., et al., Cell, 62: 81-88 (1990), utilizing steps one through three; from tissue; host or cells: rat brain
Assay: Inhibition of farnesyltransferase (scintillation proximity assay, rat brain enzyme, biotin-K Ras B fragment substrate)
Format: biochemical
Settings: for inhibition at 0.01 µM: read-out: % inhibition at 0.01 μM (**); for inhibition at 0.01 µM / % inhibition at 0.01 μM (**): Table 6, ** = 0.01 μM (footnote), title prints 0.01 mM; for inhibition at 0.1 µM: read-out: % inhibition at 0.1 μM (*); for inhibition at 0.1 µM / % inhibition at 0.1 μM (*): Table 6, * = 0.1 μM (footnote), title prints 0.1 mM
Method in brief: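 Enzyme from rat brain, partly purified (steps one to three), assayed by SPA kit using 0.1 mM final biotin-K Ras B peptide as prenyl acceptor rather than biotin-lamin. Activity given as percent inhibition.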

T1 sequence (Q02293 whole entry, one chain of several): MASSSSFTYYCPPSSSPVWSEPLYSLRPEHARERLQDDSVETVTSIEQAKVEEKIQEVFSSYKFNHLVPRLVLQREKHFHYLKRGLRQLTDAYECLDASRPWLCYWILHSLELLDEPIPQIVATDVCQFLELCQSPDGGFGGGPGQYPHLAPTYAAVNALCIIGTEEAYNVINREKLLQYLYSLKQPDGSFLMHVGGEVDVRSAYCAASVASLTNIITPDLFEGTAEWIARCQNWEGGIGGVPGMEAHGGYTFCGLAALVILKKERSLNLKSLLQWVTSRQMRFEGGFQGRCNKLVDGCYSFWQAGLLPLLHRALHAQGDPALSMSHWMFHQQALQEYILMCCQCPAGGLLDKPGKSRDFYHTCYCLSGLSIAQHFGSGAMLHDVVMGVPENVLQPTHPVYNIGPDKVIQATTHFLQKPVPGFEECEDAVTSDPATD

Row | Compound | inhibition at 0.01 µM [%] | inhibition at 0.1 µM [%] | further results
1 | CSCC[C@H](NC(=O)c1ccc(CN2CCSC[C@H]2COCC2CCCCC2)cc1-c1ccccc1C)C(=O)O [Example 1111, N-[4-(3(R)-cyclohexylmethoxymethylthiomorpholin-4-ylmethyl)-2-(2-methylphenyl)benzoyl]methionine] | 63 | – | –
2 | CSCC[C@H](NC(=O)c1ccc(CN2CC[C@H]2COCC2CCCCC2)cc1-c1ccccc1C)C(=O)O [Example 1114, N-[4-(2(S)-cyclohexylmethoxymethylazetidin-1-ylmethyl)-2-(2-methylphenyl)benzoyl]methionine] | 83 | – | –
3 | CSCC[C@H](NC(=O)c1ccc(CN2CCC[C@H]2COc2cc(F)cc(F)c2)cc1-c1ccccc1C)C(=O)O [Example 1115, N-[4-(2(S)-(3,5-difluorolphenoxy)methylpyffolidin-1-ylmethyl)-2-(2-methylphenyl)benzoyl]methionine] | – | 94 | –
4 | CSCC[C@H](NC(=O)c1ccc(CN2CCC[C@H]2COC2CCCCC2)cc1-c1ccccc1C)C(=O)O [Example 1116, N-[4-(2(S)-cyclohexyloxymethylpyrrolidin-1-ylmethyl)-2-(2-methylphenyl)benzoyl]methionine] | 91 | – | –
5 | CSCC[C@H](NC(=O)c1ccc(CN2CC(F)(F)C[C@H]2COCC2CCCCC2)cc1-c1ccccc1C)C(=O)O [Example 1117, N-[4-(2(S)-cyclohexylmethyloxymethyl-4,4-difluoropyrrolidin-1-ylmethyl)-2-(2-methylphenyl)benzoyl]methionine] | – | 92 | –
6 | COCC1CCC(Cc2ccccc2)N1Cc1ccc(C(=O)N[C@@H](CCSC)C(=O)O)c(-c2ccccc2C)c1 (stereo partly shown) [Example 1118, N-[4-(2-methoxymethyl-5-benzylpyrrolidin-1-ylmethyl)-2-(2-methylphenyl)benzoyl]methionine] | – | 86 | –
7 | CSCC[C@H](NC(=O)c1ccc(CN2CCC[C@@H]2COCC2CCCCC2)cc1-c1ccccc1C)C(=O)O [Example 1119, N-[4-(2-cyclohexylmethoxymethylpyrrolidin-1-ylmethyl)-2-(2-methylphenyl)benzoyl]methionine] | 84 | – | –
8 | COC1CC(COCc2ccccc2)N(Cc2ccc(C(=O)N[C@@H](CCSC)C(=O)O)c(-c3ccccc3C)c2)C1 (stereo partly shown) [Example 1121, N-[4-(2-benzyloxymethyl-4-methoxypyrrolidin-1-ylmethyl)-2-(2-methylphenyl)benzoyl]methionine] | – | 72 | –
9 | COC1CC(COCC2CCCCC2)N(Cc2ccc(C(=O)NC(CCSC)C(=O)O)c(-c3ccccc3C)c2)C1 [Example 1123, N-[4-(2(S)-cyclohexylmethoxymethyl-4(R-methoxypyrrolidin-1-ylmethyl)-2-(2-methylphenyl)benzoyl]methionine] | – | 90 | –
10 | CSCC[C@H](NC(=O)c1ccc(CN2CCC[C@H]2CN2CCCCC2)cc1-c1ccccc1C)C(=O)O [Example 1125, N-[4-(2-piperidin-1-ylmethylpyrrolidin-1-ylmethyl)-2-(2-methylphenyl)benzoyl]methionine] | – | 92 | –
11 | CSCC[C@H](NC(=O)c1ccc(CN2CCC[C@H]2CN(C)C2CCCCC2)cc1-c1ccccc1C)C(=O)O [Example 1127] | – | 90 | –
12 | CSCC[C@H](NC(=O)c1ccc(CN2OCCC2COC2CCCCC2)cc1-c1ccccc1C)C(=O)O (stereo partly shown) [Example 1130, N-[4-(3-cyclohexyloxymethylisoxazolidin-2-ylmethyl)-2-(2-methylphenyl)benzoyl]methionine] | 88 | – | –
13 | CCSCC(CC1CCCCC1)NCc1cc(-c2ccccc2C)c(C(=O)N[C@@H](CCSC)C(=O)O)cc1F (stereo partly shown) [Example 1134] | – | – | % inhibition at 0.01 μM (**): 95%
14 | CCC(=O)N(CCCc1ccc(C(=O)N[C@@H](CCSC)C(=O)O)c(-c2ccccc2C)c1)C1CCCCC1 [Example 1145] | – | – | % inhibition at 0.1 μM (*): 83%
15 | CSCC[C@H](NC(=O)c1ccc(C/C(=C\c2cncs2)COc2cc(F)cc(F)c2)cc1-c1ccccc1C)C(=O)O [Example 1163, N-{4-[E-2-(3,5-diflourophenoxy)methyl-3-(thiazol-5-yl)prop-2-enyl]-2-(2-methylphenyl)benzoyl}methionine Lithium Salt] | 73 | – | –
16 | CCCCN(Cc1cc(F)cc(F)c1)OCc1ccc(C(=O)N[C@@H](CCSC)C(=O)O)c(-c2ccccc2C)c1 [Example 1176, N-[4-N-Butyl-N-(3,5-difluorobenzyl)aminooxymethyl-2-(2-methylphenyl)benzoyl]methionine lithium salt] | – | 97 | –

Row | Compound | inhibition at 0.01 µM [%] | inhibition at 0.1 µM [%] | further results
17 | CCCCN(CC1CCCCC1)OCc1ccc(C(=O)N[C@@H](CCSC)C(=O)O)c(-c2ccccc2C)c1 [Example 1186] | 93 | – | –
18 | CCCCN(CCN1CCCCC1)Cc1ccc(C(=O)N[C@@H](CCSC)C(=O)O)c(-c2ccccc2C)c1 [Example 1196] | – | – | % inhibition at 0.1 μM (*): 87%
19 | CSCC[C@H](NC(=O)c1ccc(CP(C)(=O)CC2CCCCC2)cc1-c1ccccc1C)C(=O)O (stereo partly shown) [Example 1212, N-[4-((Cylohexylmethyl)methyl(oxophosphinyl)methyl)-2-(2-methylphenyl)benzoyl]methionine] | – | 86 | –
20 | CCCCP(=O)(Cc1ccc(C(=O)N[C@@H](CCSC)C(=O)O)c(-c2ccccc2C)c1)CC1CCCCC1 (stereo partly shown) [Example 1213, N-[4-((Cylohexylmethyl)butyl(oxophosphinyl)methyl)-2-(2-methylphenyl)benzoyl]methionine] | 79 | – | –
21 | CSCC[C@H](NC(=O)c1ccc(CP(=O)(CC2CCCCC2)CC2CCCCC2)cc1-c1ccccc1C)C(=O)O [Example 1214, N-[4-(Di(cylohexylmethyl)(oxophosphinyl)methyl)-2-(2-methylphenyl)benzoyl]methionine] | 92 | – | –
22 | CSCC[C@H](NC(=O)c1ccc(CP(=O)(CCC2CCCCC2)CCC2CCCCC2)cc1-c1ccccc1C)C(=O)O [Example 1219, N-[4-(Di(2-cylohexylethyl)(oxophosphinyl)methyl)-2-(2-methylphenyl)benzoyl]methionine] | 85 | – | –
23 | CCCCP(=O)(CCCC)Cc1ccc(C(=O)N[C@@H](CCSC)C(=O)O)c(-c2ccccc2C)c1 [Example 1222, N-[4-(Dibutyl(oxophosphinyl)methyl)-2-(2-methylphenyl)benzoyl]methionine] | – | 89 | –
24 | CCCCC(OCc1ccc(C(=O)N[C@@H](CCSC)C(=O)[O-])c(-c2ccccc2C)c1)C1CCNCC1.[Li+] (stereo partly shown) [Example 1288] | – | – | % inhibition at 0.1 μM (*): 69%
25 | CSCC[C@H](NC(=O)c1ccc(CC(CO)CCC2CCCCC2)cc1-c1ccccc1C)C(=O)O (stereo partly shown) [Example 1299, N-[4-(2-(2-Cyclohexylethyl)-1-hydroxyprop-3-yl)-2-(2-methylphenyl)benzoyl]methionine Lithium Salt] | 96 | – | –
26 | CCSCC(CCC1CCCCC1)Cc1ccc(C(=O)N[C@@H](CCSC)C(=O)O)c(-c2ccccc2C)c1 (stereo partly shown) [Example 1300, N-[4-(2-(2-Cyclohexylethyl)-1-ethylthioprop-3-yl)-2-(2-methylphenyl)benzoyl]methionine Lithium Salt] | – | 97 | –
27 | CSCC[C@H](NC(=O)c1ccc(CC(CCC2CCCCC2)C(=O)OC(C)(C)C)cc1-c1ccccc1C)C(=O)O (stereo partly shown) [Example 1301, N-[4-(2-(2-cyclohexylethyl)t-butylpropion-3-yl)-2-(2-methylphenyl)benzoyl]methionine Lithium Salt] | – | 97 | –
28 | CSCC[C@H](NC(=O)c1ccc(CC(CCC2CCCCC2)S(=O)(=O)c2ccccc2)cc1-c1ccccc1C)C(=O)O (stereo partly shown) [Example 1302, N-[4-(4-Cyclohexyl-2-phenylsulfonylbut-1-yl)-2-(2-methylphenyl)benzoyl]methionine Lithium Salt] | 93 | – | –
29 | CCSCC(CC1CCCCC1)NCc1cc(-c2ccccc2C)c(C(=O)N[C@@H](CCSC)C(=O)O)cc1OC (stereo partly shown) [Example 1337] | – | – | % inhibition at 0.01 μM (**): 83%
30 | N-[4-(2-fluoren-4-ylethyl)-2-(2-methylphenyl)benzoyl]methionine lithium salt [Example 464] | – | – | % inhibition of farnesyltransferase at 1 × 10^-7 M (1 × 10^-7 M (Table 3)): 86%
31 | N-[4-(4-phenylcyclohexylidenyl)-2-(2-methylphenyl)benzoyl]methionine lithium salt [Example 789] | – | – | % inhibition of farnesyltransferase at 1 × 10^-6 M (1 × 10^-6 M (Table 2)): 86%
